A short description of the data set: cationite (cation-exchanging) capacity. The class given is physicochemical.

Consider “2-([60] fullerene [1′,9′:3,4] cyclohexen-1-y1)-5,10,15,20-(tetra magnesium [(4-(N-(4-carboxy butyl) amino) phenyl 2,3-dicarboxylatel]) porphyrin iron (II) [PMC16]”, for which the cationite capacities was 320-370 meqv/mmol.

The values are drawn from patent US7879996B2, “Water soluble compounds” (priority 2007, dated 2011).
